Measurements: patent US9290529B2, “Carbonic anhydrase inhibitors and method of their production” (USTAV ORGANICKE CHEMIE A BIOCHEMIE AKADEMIE VED CESKE …, priority 2011, dated 2016)

Assays:
[1] = target: T1, human carbonic anhydrase II (hCA II) (Homo sapiens, UniProt P00918); assay: Colorimetric carbonic anhydrase inhibition assay (CO2 hydration, phenol red), hCA II; assay type: biochemical; conditions: 0° C., HEPES pH 7.0
T1 construct: purchased Sigma Aldrich C6165
Experimental: (§1) The compounds were assayed for inhibition activity of two isoforms of human carbonic anhydrase: hCA II and hCA IX. The human carbonic anhydrase II (HCA II) was purchased from Sigma Aldrich (Cat. No. C6165) in the form of lyophilized protein, which was dissolved before use in 10 mmol·l^−1 HEPES pH 7.0 to a concentration of 300 μmol·l^−1 and further diluted as required. Human carbonic anhydrase IX (HCA IX) was prepared by recombinant expression system in insect (Drosophila expression system, Invitrogen). […] This protein was further purified from media by chelating chromatography carrier His-Select Nickel Affinity Gel (Sigma, Cat No. P6611) and gel chromatography (Superdex 200 GL 30/300, GE Healthcare) according to the manufacturer's recommendations.
(§2) The principle of the method is based on measuring the rate of acidification of the solution that is observed as the color-shift of the acid-base-indicator (fenol red). The reaction was conducted in a glass tube placed in an ice bath (0° C., all stock solutions and enzymes were kept at the same temperature). […] This was followed by a CO2 saturation (stream flow 50 ml/min.) using a needle (18 G) up to color transition of fenol-red from red to yellow (typically 60 seconds by default). […] End point of reaction was determined by visual comparison with reference tube containing acid-base indicator (0.01% (wt./vol.) Fenol-red) and the pH adjusted to 7.0. […] Molar activity was calculated according to the formula:
(§3) [formula] where tB is the time of negative control without enzyme and tS is the time measured with an enzyme sample (and inhibitor), nprot is the number of moles of protein present in the sample. The value of IC50 for the inhibitor concentration corresponds inhibitor contraction required to decrease the specific activity to half of the value of non-inhibited enzyme. Selectivity towards CA IX inhibitor was calculated as the ratio of IC50 values for inhibition of HCA II against the value of IC50 for inhibition CA IX enzyme.

[2] = target: T2, human carbonic anhydrase IX (hCA IX) (Homo sapiens, UniProt Q16790); assay: Colorimetric carbonic anhydrase inhibition assay (CO2 hydration, phenol red), hCA IX; assay type: biochemical; conditions: for IC50: 0° C., HEPES pH 7.0, recombinant extracellular CA domain, read-out: IC50 (hCA IX); for Selectivity to hCA IX IC50 (hCA II)/IC50 (hCA IX): ratio of IC50 values
T2 construct: Construct contained the extracellular CA domain (amino acid residues 139-390) cloned into the pMT/BiP/V5-His vector; His tag (from vector pMT/BiP/V5-His) (C); BiP secretion signal (from vector pMT/BiP/V5-His) (N); made in house; host or cells: Drosophila expression system (Invitrogen), insect cells, secreted into SF 900 II medium
Experimental: as §1, §2, §3

CCRF-CEM cells = assay: Flow cytometric measurement of intracellular pH (pHi), CA IX negative CCRF-CEM; assay type: cell-based, human; conditions: 50 μM acetazolamide, 24 hour incubation, control 7.362
Experimental: (§4) The effect of carborane CAIX (carbonic anhydrase IX) inhibitors was evaluated on colorectal cancer cell line HCT116 expressing CAIX enzyme versus CA IX negative cell line of T-lymphoblastic leukemia CCRF-CEM. Acetazolamide, a known inhibitor of CAIX, was used as a standard. HCT116/CCRF-CEM cells were cultivated in McCoy/RPMI Media supplemented with 10% FCS and antibiotics and seeded at high density ([…] per 3.5 cm dish) to induce pericellular hypoxia and thus stimulate CA IX expression. Measurement of pHi was assessed as described in Cianchi et al. [Cianchi F., et al. Selective inhibition of carbonic anhydrase IX decreases cell proliferation and induces […] apoptosis in human cancer cells. The Journal of Pharmacology and Experimental Therapeutics, 2010, Vol. 334, No. 3, 710-719].
(§5) […] The pHi was measured by flow cytometry in cell cultures pretreated with 10 μM of pH sensitive probe carboxyseminaphtorhoda-fluor-1-acetoxymethyl ester (SNARF, Invitrogen, CA) for 15 min at 37° C. After incubation, the cells were washed twice with PBS. Because the addition of bicarbonate can affect pHi, all incubation and cell washes were performed in bicarbonate-free buffer. SNARF was excited at 488 nm and emitted at 580 and 640 nm. The ratio of the emission wavelengths at 640/580 nm was then used to estimate the pHi from a calibration curve. The calibration curve was prepared by nigericin clamp technique. In this method, after the SNARF labeling of untreated cells, aliquots of cell suspensions were re-suspended in a high potassium containing buffer at specific pH (usually 6.8, 7.0, 7.2, 7.4, 7.6 and 7.8). The cell suspensions were then clamped at a specific pH value by the addition of 0.03 μM nigericin (Sigma-Aldrich). Nigericin is a ionophore that allows the exchange of H for K ions, thus abolishing the pH gradient across the cell membrane. When the internal and external K concentrations are approximately equal, the pH rapidly equilibrates to the pH of the bathing solution. A total of 20,000 events were acquired on a FACS ARIA II flow cytometer (Becton. Dickinson) for further analysis.
(§6) The fluorescent ratio values (640/580 nm) calculated for each pH point were further used to construct calibration curve in Prism software (GraphPad Software, Inc., San Diego, Calif.), from which the pHi values in treated cells were determined (Table 3).

HCT116 cells = assay: Flow cytometric measurement of intracellular pH (pHi), HCT116 expressing CAIX; assay type: cell-based, human
Experimental: as §4, §5, §6

Compound | IC50 [1] | IC50 [2] | Selectivity to hCA IX IC50 (hCA II)/IC50 (hCA IX) [2] | pHi (CCRF-CEM cells) | pHi (HCT116 cells; HCT116, 50 μM acetazolamide, 24 hour incubation, control 7.516) | intracellular acidification in HCT116 cells (HCT116 cells; carboranes 1 μM versus acetazolamide 50 μM)
1,1′-bis(3-sulfamoylpropyl)-3,3′-commo-bis(1,2-dicarba-3-cobalta(III)-closo-dodecabor)ate (1-) [CB-25] | 40 nM | 4 nM | 10 |  |  | 
1-(2-sulfonamidethyl)-1,2-dicarba-closo-dodecaborane [CB-23] | 400 nM | 380 nM | 1.05 |  |  | 
1-(3-sulfamoyl-propyl)-3,3′-commo-(decahydro-1,2-dicarba-3-cobalta(III)-undecahydro-1′,2″-dicarba-closo-dodecabor)ate (1-), sodium salt dihydrate [CB-26] | 110 nM | 14 nM | 7.9 |  |  | 
1-ethylenenesulfamide-3,3′-commo-bis(1,2-dicarba-3-cobalta(III)-closo-dodecabor)ate (1-) [CB-30] | 570 nM | 0.7 nM | 814 |  |  | 
1-propylenesulfamide-3,3′-commo-bis(1,2-dicarba-3-cobalta(III)-closo-dodecabor)ate (1-) [CB-29] | 3900 nM | 22 nM | 177 |  |  | 
9-sulfamide-10′-amine-2,2′-commo-(1,7,9-tricarba-1′,7′, 10′-tricarba-2-ferra(H)-closo-dodekabor)ane [CB-11] | 83900 nM | 1500 nM | 55.9 |  |  | 
CC(=O)Nc1nnc(S(N)(=O)=O)s1 [acetazolamide, reference compound] |  |  |  | 7.34 | 7.47 | mild intracellular acidification
